According to publication PMC6105804, “In Vitro and In Vivo Evaluation of APX001A/APX001 and Other Gwt1 Inhibitors against Cryptococcus” (Antimicrobial Agents and Chemotherapy, 2018):
In brackets after ≈: the same amount, converted by molar mass. Like-named read-outs stand apart in the source and are kept apart here. Each block holds one compound with its values, some of them ahead of it.

Experiments:
C. neoformans strain H99 [1] = assay: Delayed-treatment model of cryptococcal meningitis; format: in vivo, Cryptococcus neoformans; settings: treatment from 24 h after infection, QD 7 days; APX2096 60 mg/kg i.p. + ABT, AMB 3 mg/kg i.p.
Description: As in the previous mouse model, 100-mg/kg ABT (p.o.) was administered 2 h prior to each APX2096 dose (n = 5 mice/cohort). Infection was initiated on day 1, and treatment was initiated 24 h later (day 2) rather than 1 h later. Treatments were administered for 7 days (the final dose was administered on day 8), and mice were sacrificed on day 9 for CFU enumeration.
Male CD-1 mice were infected with 5.4 × 10^4 CFU per mouse via lateral tail vein injection. […] A dose of 100-mg/kg ABT was administered orally 2 h prior to each APX2096 dose. Mice were sacrificed 24 h after the last dose, and the brain and left lung were homogenized and cultured for quantitative determination of the tissue burden (number of CFU per gram of tissue). Fungal burden data were log10 transformed and evaluated using Kruskal-Wallis tests with Dunn's multiple-comparison test for post hoc analysis (Prism software, v5; GraphPad Software, Inc., San Diego, CA). A P value of ≤0.05 was considered statistically significant (*, P ≤ 0.05; **, P ≤ 0.01). The 95% confidence interval (CI) is presented.
Fungal burden data were log10 transformed and evaluated using Kruskal-Wallis tests with Dunn's multiple-comparison test for post hoc analysis (Prism software, v5; GraphPad Software, Inc., San Diego, CA). A P value of ≤0.05 was considered statistically significant.

C. neoformans [2] = tested on: C. neoformans; parameters: method as in PMID 15078612; settings: U.S. isolates; cited from earlier work
C. gattii = assay: Broth microdilution susceptibility testing (CLSI M27-A3); format: cell-based; settings: Cryptococcus gattii
From the text: (§1) C. neoformans strains H99, DUMC 118.00, and DUMC 158.03 and C. gattii strains R272 and RSA-MW-3515 were obtained from Duke University. C. albicans 90028, A. fumigatus MYA3626, C. neoformans 14116, C. neoformans 76484, and the pathogenic Cryptococcus reference strains panel (ATCC MP-11) were obtained from the American Type Culture Collection (ATCC; Manassas, VA, USA). The ATCC MP-11 panel consists of strains representing eight molecular types and three subtypes of C. neoformans and C. gattii.
(§2) To establish the antimicrobial activity of the APX001A analogs, broth microdilution susceptibility testing was performed according to Clinical and Laboratory Standards Institute (CLSI) guidelines M27-A3 ([47]) for yeasts and M38-A2 for molds ([48]). APX001A and analogs were first diluted in DMSO to obtain intermediate dilutions. These were further diluted in microtiter plates to obtain a final concentration of 2 to 0.002 μg/ml. One microliter of DMSO was added to the no-drug control wells. The solutions were mixed on a plate shaker for 10 min, and the plates were incubated at 35°C for 40 to 48 h (C. albicans, A. fumigatus) and 72 h (C. neoformans). The minimum concentration that led to a 50% reduction in fungal growth compared to that for the control (determined with the aid of a reading mirror) was determined as the MIC for C. albicans and C. neoformans. The minimum concentration that led to the shortening of hyphae compared to the hyphal growth in DMSO control wells was determined as the minimum effective concentration (MEC) for A. fumigatus (as read for the echinocandins). The use of the MIC and MEC endpoints for APX001A (formerly E1210) against yeasts and molds, respectively, has been described previously ([19][–][21]). For the cryptococcal synergy studies, APX001A and APX2020 MIC values were read at 50% inhibition.

C. neoformans [3] = assay: as above; format: cell-based, Cryptococcus neoformans; settings: Cryptococcus neoformans
From the text: as §1, §2

[4] = tested on: FLC-susceptible and FLC-nonsusceptible/resistant strains of C. neoformans and C. gattii; assay: Broth microdilution, summary over the 18-strain Cryptococcus collection; format: cell-based, Cryptococcus neoformans and Cryptococcus gattii; settings: 18 strains of C. neoformans and C. gattii
Description: as §2, with “The minimum concentration that led to the shortening of hyphae compared to the hyphal growth in DMSO control wells was determined as the minimum effective concentration (MEC) for A. fumigatus (as read for the echinocandins).” left out

C. albicans 90028 = assay: Broth microdilution susceptibility testing (CLSI M27-A3); format: cell-based, Candida albicans; settings: Candida albicans, 90028; read-out: MIC, C. albicans 90028
From the text: as §1, §2

A. fumigatus MYA3626 = assay: Broth microdilution susceptibility testing for molds (CLSI M38-A2); format: cell-based; settings: Aspergillus fumigatus, MYA3626; read-out: MIC or MEC for A. fumigatus MYA3626
From the text: as §1, §2

C. neoformans strain H99 [5] = assay: Murine cryptococcal meningitis model with ABT, dose-response study; format: in vivo, Cryptococcus neoformans
Description: A dose-response study was performed with APX2096 and APX2097 to confirm the observed activity. In this study, QD doses of 7.5, 20, and 60 mg/kg were evaluated in conjunction with the administration of ABT. A 60-mg/kg dose QD without ABT was also evaluated as a control.
FIG 3 Dose-response of APX2096 and APX2097 in a murine model of cryptococcal meningitis in conjunction with ABT administration. ABT at 100 mg/kg was administered orally to male CD-1 mice at 2 h prior to each APX compound dose. Mice were injected with 4.8 × 10^4 CFU C. neoformans strain H99 per mouse via the lateral tail vein at time zero. Treatment with the APX compounds was initiated at 1 h postinfection by i.p. administration and continued for 7 days, with 100-mg/kg ABT being administered orally 2 h prior to each APX compound dose. The correction factors for prodrug potencies versus the potencies of the active moieties were similar enough such that the same factor (1.3) was used for all APX compounds. Fungal burden data were log10 transformed and evaluated using Kruskal-Wallis tests with Dunn's multiple-comparison test for post hoc analysis (Prism software, v5; GraphPad Software, Inc., San Diego, CA). […] A P value of ≤0.05 was considered statistically significant (*, P ≤ 0.05; **, P ≤ 0.01; ***, P ≤ 0.001). The 95% confidence interval (CI) is presented.
(§3) C. neoformans strain H99 was grown in yeast extract-peptone-dextrose broth at 30°C on a shaker (220 rpm) for 24 h, centrifuged (1,980 relative centrifugal force), and washed twice in phosphate-buffered saline (PBS), resuspended in PBS, and quantified by hemacytometric count. Male CD-1 mice were infected with ∼5 × 10^4 CFU per mouse via lateral tail vein injection of 100 μl. Mice were weighed, and treatment was begun within 1 h after infection. Treatments were administered daily for 7 days. Mice were weighed daily and observed for acute and chronic adverse symptoms. Mice were sacrificed on day 8, and the brain and left lung were homogenized and cultured for quantitative determination of the tissue burden (number of CFU per gram of tissue). Tissues were homogenized for 25 s in 1 ml phosphate-buffered saline using two 6.5-mm steel beads and a Mini-Beadbeater 16 apparatus (Biospec Products, Inc., Bartlesville, OK) and serially diluted in 10-fold steps. Aliquots (100 μl) of homogenate were plated and incubated for 3 to 7 days at 37°C. Fungal burden data were log10 transformed and evaluated using Kruskal-Wallis tests with Dunn's multiple-comparison test for post hoc analysis (Prism software, v5; GraphPad Software, Inc., San Diego, CA). A P value of ≤0.05 was considered statistically significant.

[6] = Acute toxicity and survival observed in the CM model with ABT; format: in vivo, mouse; settings: i.p. dosing + ABT; dose then reduced to 60 mg/kg for surviving mice
Description: (§4) ABT at 100 mg/kg was administered orally to male CD-1 mice at 2 h prior to each APX compound dose. Mice were injected with 6.9 × 10^4 CFU of C. neoformans strain H99 per mouse via the lateral tail vein at time zero. Treatment with the APX compound was initiated at about 1 h postinfection by i.p. administration and continued for 7 days, with 100-mg/kg ABT being administered orally 2 h prior to each APX compound dose. […] Fungal burden data were log10 transformed and evaluated using Kruskal-Wallis tests with Dunn's multiple-comparison test for post hoc analysis (Prism software, v5; GraphPad Software, Inc., San Diego, CA). A P value of ≤0.05 was considered statistically significant (*, P ≤ 0.05; **, P ≤ 0.01). The 95% confidence interval (CI) is presented.
as §3

C. neoformans strain H99 [7] = assay: Murine cryptococcal meningitis model with ABT pretreatment (preliminary experiment); format: in vivo, Cryptococcus neoformans; settings: 7 days
Description: In a preliminary experiment, the efficacies of APX001, APX2096, and APX2097 were evaluated in the disseminated model of CM (n = 5 mice/cohort). ABT at 100 mg/kg was administered orally to male CD-1 mice 2 h prior to APX compound administration. Mice were injected with 6.9 × 10^4 CFU of C. neoformans strain H99 per mouse via the lateral tail vein at time zero. Treatment with each prodrug was initiated at about 1 h postinfection by i.p. administration and continued daily for 7 days, with 100-mg/kg ABT being administered orally 2 h prior to each APX compound dose.
as §4, §3

[8] = QD doses of 7.5, 20 and 60 mg/kg i.p. + ABT
[9] = QD doses of 7.5, 20 and 60 mg/kg i.p. + ABT, not significant
[10] = 34 mg/kg QD i.p. + ABT 100 mg/kg p.o.
[11] = 85 mg/kg QD i.p. + ABT 100 mg/kg p.o.

- MIC (C. gattii; C. gattii isolate MYA-4093, read-out: MIC): 0.25 µg/mL
- MIC (C. gattii; C. gattii isolate MYA-4094, read-out: MIC): 0.25 µg/mL
- MIC (C. gattii; C. gattii isolate MYA-4560 (first listing, r17), read-out: MIC): 0.063 µg/mL
- MIC (C. gattii; C. gattii isolate MYA-4560 (second listing, r21), read-out: MIC): 0.063 µg/mL
- MIC (C. gattii; C. gattii isolate MYA-4561, read-out: MIC): 0.25 µg/mL
- MIC (C. gattii; C. gattii isolate MYA-4562, read-out: MIC): 0.25 µg/mL
- MIC (C. gattii; C. gattii isolate MYA-4563, read-out: MIC): 0.125 µg/mL
- MIC (C. gattii; C. gattii isolate MYA-4877, read-out: MIC): 0.25 µg/mL
- MIC (C. gattii; C. gattii isolate RSA-MW-3615 (FLC resistant), read-out: MIC): 0.25 µg/mL
- MIC (C. gattii; Table 1, 50% growth inhibition for FLC, caspofungin and APX compounds, 100% for AMB, read-out: MIC, C. gattii WM276): 0.25 µg/mL
- MIC (C. neoformans [3]; 72 h, Table 1, 50% growth inhibition for FLC, caspofungin and APX compounds, 100% for AMB, 72 h, read-out: MIC, C. neoformans H99): 0.25 µg/mL
- MIC (C. neoformans [3]; C. neoformans isolate 14116, read-out: MIC): 0.25 µg/mL
- MIC (C. neoformans [3]; C. neoformans isolate 76484, read-out: MIC): 0.25 µg/mL
- MIC (C. neoformans [3]; C. neoformans isolate DUMC 118.00 (FLC resistant), read-out: MIC): 0.25 µg/mL
- MIC (C. neoformans [3]; C. neoformans isolate DUMC 158.03 (FLC resistant), read-out: MIC): 1 µg/mL
- MIC (C. neoformans [3]; C. neoformans isolate MYA-4564, read-out: MIC): 0.25 µg/mL
- MIC (C. neoformans [3]; C. neoformans isolate MYA-4565, read-out: MIC): 0.125 µg/mL
- MIC (C. neoformans [3]; C. neoformans isolate MYA-4566, read-out: MIC): 0.25 µg/mL
- MIC (C. neoformans [3]; C. neoformans isolate MYA-4567, read-out: MIC): 0.25 µg/mL
- MIC (C. neoformans [3]; Table 2, C. neoformans isolate H99, read-out: MIC): 0.25 µg/mL
- MIC90 [4]: 0.25 µg/mL
- MIC ([4]; read-out: Geometric mean MIC): 0.215 µg/mL
- MIC (C. albicans 90028): 1 µg/mL
- MIC (A. fumigatus MYA3626): 1 µg/mL
Structure (SMILES): C[C@@H]1[C@H](O)[C@@H](C)/C=C/C=C/C=C/C=C/C=C/C=C/C=C/[C@H](O[C@@H]2O[C@H](C)[C@@H](O)[C@H](N)[C@@H]2O)C[C@@H]2O[C@](O)(C[C@@H](O)C[C@@H](O)[C@H](O)CC[C@@H](O)C[C@@H](O)CC(=O)O[C@H]1C)C[C@H](O)[C@H]2C(=O)O [AMB, amphotericin B, reference compound]
- reduction of the lung tissue fungal burden vs untreated control (C. neoformans strain H99 [1]): 4.02 log10 CFU/g
- MIC90 (C. neoformans [2]): 2 µg/mL (≈ 2.16 µM)

Structure (SMILES): Nc1c(-c2cc(Cc3ccc(OCc4ccccc4)cc3)no2)ccc[n+]1COP(=O)([O-])O [APX2097]
- reduction in brain fungal burden (C. neoformans strain H99 [5]; 60 mg/kg QD i.p. + ABT): 1.45 log10 CFU/g
- reduction in lung fungal burden (C. neoformans strain H99 [5]; 60 mg/kg QD i.p. + ABT): 1.55 log10 CFU/g
- dose-dependent change in brain fungal burden: increase end of range (C. neoformans strain H99 [5]; [8]): 0.24 log10 CFU/g
- dose-dependent change in lung fungal burden: increase end of range (C. neoformans strain H99 [5]; [8]): 1.20 log10 CFU/g
- dose-dependent change in brain fungal burden: reduction end of range (C. neoformans strain H99 [5]; [9]): 1.45 log10 CFU/g
- dose-dependent change in lung fungal burden: reduction end of range (C. neoformans strain H99 [5]; [9]): 1.55 log10 CFU/g
- Acute toxicity observed (day of treatment) [6]: day 6
- reduction in brain fungal burden (C. neoformans strain H99 [7]; [10]): 1.66 log10 CFU/g
- reduction in lung fungal burden (C. neoformans strain H99 [7]; [10]): 1.07 log10 CFU/g
- reduction in brain fungal burden (C. neoformans strain H99 [7]; [11]): 2.72 log10 CFU/g
- reduction in lung fungal burden (C. neoformans strain H99 [7]; [11]): 3.28 log10 CFU/g
